Experimental data published in patent US20100120843A1, “PHARMACEUTICAL COMPOSITION FOR TREATING ALCOHOL-INDUCED LIVER INJURY COMPRISING (4S,5S)-5-FLUOROMETHYL-5-HYDROXY-4-(AMINO)-DIHYDROFURAN-2-ONE OR PHARMACEUTICALLY ACCEPTABLE SALT THEREOF” (LG Life Sciences Ltd., priority 2008, published 2010).

Key:
apoptosis of liver cell = test: TUNEL staining of liver tissue (apoptosis of liver cell); type: in vivo, rat
From the text: (§1) Male Sprague-Dawley rats (5 weeks of age, 170 g of body weight) were divided into four experimental groups: control diet group, control diet with CF1 group, ethanol (EtOH) diet group and EtOH diet with CF1 group. Control diet group, control diet with CF1 group, EtOH diet group, and EtOH diet with CF1 group were fed, respectively, with Lieber-Decarli control diet, Lieber-Decarli control diet and CF1, Lieber-Decarli liquid diet containing 6% ethanol, and Lieber-Decarli liquid diet containing 6% ethanol and CF1 for 12 weeks. CF1 was dissolved in PEG (polyethylene glycol) 400 and 5% ethanol solution (PEG 400:ethanol=2:1), and administered daily at 10 mg/kg by oral gavage. About 8 hours prior to rats' sacrifice, lipopolysaccharide (LPS) was intraperitoneally injected to increase the liver injury in the amount of 1 mg/kg.
To investigate apoptosis of liver cell according to alcohol ingestion, TUNEL staining was processed. TUNEL staining was carried out using in situ Cell Death Detection Kit (Roche Diagnostics, Germany) according to the manufacturer's instructions.
Stained tissue was photographed at 100 times magnification (FIG. 5). TUNEL positive cells per field were calculated.

[1] = Determination of serum liver enzymes (AST, ALT) in association with liver injury; type: in vivo, rat; details: 12 weeks
From the text: as §1
Liver injury was assessed by a biochemical assay of liver enzyme. After the 12 weeks' experiment, the blood samples were obtained from all rats' heart. Serum aspartate transaminase (AST) and alanine transaminase (ALT) values were analyzed for 100 μl of plasma from each blood sample with Hitachi 7050 automatic analyzer (Hitachi, Japan).

caspase-3 = target: T1, caspase-3 (Rattus norvegicus, UniProt P55213); test: Fluorometric assay of caspase-3 activity in cellular extraction of liver tissue; type: in vivo; details: EtOH diet with CF1 10 mg/kg oral daily, 12 weeks, LPS 1 mg/kg i.p. 8 h before sacrifice; FIG. 1
T1 construct: the activities of caspase-3 and caspase-8 were assayed in cellular extraction of liver tissue; from tissue; host or cells: liver of Sprague-Dawley rats dosed orally with CF1
T1 sequence (P55213 29-175 limits assumed): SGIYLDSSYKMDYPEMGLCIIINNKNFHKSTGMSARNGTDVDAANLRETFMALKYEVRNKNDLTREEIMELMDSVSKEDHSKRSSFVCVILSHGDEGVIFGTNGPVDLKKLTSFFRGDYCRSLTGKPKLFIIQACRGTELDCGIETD
T1 sequence (P55213 176-277 limits assumed): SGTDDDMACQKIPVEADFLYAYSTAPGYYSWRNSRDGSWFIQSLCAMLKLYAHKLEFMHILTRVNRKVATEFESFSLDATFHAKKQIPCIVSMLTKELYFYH
From the text: as §1
(§2) To investigate the role of caspase in alcohol-induced liver injury, the activities of caspase-3 and caspase-8 were assayed in cellular extraction of liver tissue. The activities of caspase-3 and caspase-8 were assayed by using EnzChek™ Caspase Assay Kit molecular Probes, USA) according to the manufacturer's instructions.

caspase-8 = target: T2, caspase-8 (Rattus norvegicus, UniProt Q9JHX4); test: Fluorometric assay of caspase-8 activity in cellular extraction of liver tissue; type: in vivo; details: EtOH diet with CF1 10 mg/kg oral daily, 12 weeks, LPS 1 mg/kg i.p. 8 h before sacrifice; FIG. 2
T2 construct: the activities of caspase-3 and caspase-8 were assayed in cellular extraction of liver tissue; from tissue; host or cells: liver of Sprague-Dawley rats dosed orally with CF1
T2 sequence (Q9JHX4 219-378 limits assumed): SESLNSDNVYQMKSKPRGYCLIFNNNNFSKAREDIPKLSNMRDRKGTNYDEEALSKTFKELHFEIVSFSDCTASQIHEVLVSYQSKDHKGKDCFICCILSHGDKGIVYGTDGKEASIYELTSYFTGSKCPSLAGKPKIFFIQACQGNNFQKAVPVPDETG
T2 sequence (Q9JHX4 389-482 limits assumed): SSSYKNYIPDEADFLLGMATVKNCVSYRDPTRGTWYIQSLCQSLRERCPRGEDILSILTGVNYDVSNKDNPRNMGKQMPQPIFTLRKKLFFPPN
From the text: as §1, §2

liver = test: Histological assessment of liver (H&E and Masson's trichrome); type: in vivo, rat
From the text: as §1
The extracted livers were fixed by 10% neutral formalin in PBS (phosphate buffered saline). Then, a paraffin section of 4 μm thickness was prepared, and stained with H&E (Hematoxylin & Eosin) and Masson's trichrome. The stained tissue was photographed at 100 times magnification (FIGS. 4A and 4B).

CC(C)[C@@]1(C(=O)N[C@H]2CC(=O)O[C@]2(O)CF)CC(c2nccc3ccccc23)=NO1 [CF1, (4S,5S)-5-fluoromethyl-5-hydroxy-4-({[(5R)-5-isopropyl-3-(isoquinolin-1-yl)-4,5-dihydro-5-isoxazolyl]carbonyl}amino)-dihydrofuran-2-one]
TUNEL positive cells per field (apoptosis of liver cell; Alcohol diet with CF1 10 mg/kg oral daily, 12 weeks, alcohol diet group 25.14±9.14, control diet group 10.3±1.9): 6.4±1.1 TUNEL positive cells/field | TUNEL positive cells (apoptosis of liver cell; Control diet with CF1 group, FIGS. 5 and 6): rarely observed | Serum alanine transaminase (ALT) ([1]; Alcohol diet with CF1 10 mg/kg oral daily, alcohol diet group 336±163 IU/L): 120±10 IU/L | Serum aspartate transaminase (AST) ([1]; Alcohol diet with CF1 10 mg/kg oral daily, alcohol diet group 454±175 IU/L): 194±22 IU/L | Serum AST and ALT values compared with control diet group ([1]; Control diet with CF1 10 mg/kg oral daily, FIG. 3): did not show significant change | caspase-3 activity in liver tissue (caspase-3): decreased to the level of control group | caspase-8 activity in liver tissue (caspase-8): decreased to the level of control group | Hepatic fibrosis (Masson's trichrome) (liver; Alcohol diet with CF1 compared with control diet groups, no statistical significance, FIG. 4B): some progression of hepatic fibrosis | Fatty liver (H&E staining) (liver; Alcohol diet with CF1 vs alcohol diet group, FIG. 4A): inhibited the increase of fatty liver
